Measurements from the NIST ThermoML archive (doi:10.1021/je400408w).

Assay: molar heat capacity at constant pressure; xn = mol fraction of the nth substance listed
Conditions: 100 kPa, Liquid

Cc1ccccc1Cl [2-chlorotoluene] + CN1CCCC1=O
molar heat capacity at constant pressure [J/K/mol]
Conditions	293.15 K	298.15 K	303.15 K
x2 = 0	176.43	178.21	180.01
x2 = 0.0766	177.61	179.54	181.65
x2 = 0.1176	178.19	180.12	182.31
x2 = 0.1545	178.64	180.7	182.82
x2 = 0.1932	179.13	181.09	183.22
x2 = 0.2387	179.69	181.63	183.63
x2 = 0.2768	180.04	181.98	183.93
x2 = 0.3121	180.38	182.21	184.15
x2 = 0.3543	180.68	182.53	184.34
x2 = 0.3871	180.8	182.64	184.39
x2 = 0.4267	180.94	182.73	184.44
x2 = 0.4653	180.97	182.78	184.48
x2 = 0.5065	180.95	182.72	184.39
x2 = 0.5412	180.74	182.59	184.2
x2 = 0.5849	180.46	182.25	183.84
x2 = 0.6219	180.05	181.77	183.46
x2 = 0.6618	179.44	181.22	182.89
x2 = 0.7064	178.51	180.31	182.03
x2 = 0.7417	177.61	179.4	181.15
x2 = 0.7817	176.49	178.16	179.97
x2 = 0.8213	175.04	176.75	178.4
x2 = 0.8543	173.73	175.32	176.97
x2 = 0.8886	172.09	173.57	175.14
x2 = 0.9133	170.81	172.18	173.6
x2 = 0.9476	168.91	170.02	171.22

Cc1ccccc1Cl [2-chlorotoluene] + O=C1CCCN1
molar heat capacity at constant pressure [J/K/mol]
Conditions	293.15 K	298.15 K	303.15 K
x2 = 0	176.43	178.21	180.01
x2 = 0.0426	177.32	179.22	181.34
x2 = 0.0815	178.2	180.1	182.4
x2 = 0.1243	179.12	181.15	183.61
x2 = 0.1654	180	182.08	184.67
x2 = 0.2067	180.7	182.94	185.64
x2 = 0.2432	181.17	183.62	186.37
x2 = 0.2851	181.73	184.27	186.97
x2 = 0.3215	182.2	184.63	187.49
x2 = 0.3645	182.46	184.96	187.88
x2 = 0.4088	182.43	185.2	188.02
x2 = 0.4426	182.43	185.07	187.93
x2 = 0.4854	182.08	184.93	187.72
x2 = 0.5231	181.74	184.55	187.37
x2 = 0.5612	181.22	183.98	186.88
x2 = 0.5987	180.54	183.29	186.2
x2 = 0.6316	179.75	182.48	185.46
x2 = 0.6724	178.85	181.51	184.4
x2 = 0.7143	177.56	180.26	183.11
x2 = 0.7543	176.48	178.86	181.78
x2 = 0.796	175.15	177.45	180.2
x2 = 0.8342	173.85	176.13	178.66
x2 = 0.8724	172.53	174.47	177.02
x2 = 0.9088	171.32	173.04	175.4
x2 = 0.9426	170.19	171.72	173.87

O=C1CCCN1 [2-pyrrolidinone] + Cc1ccc(Cl)cc1
x1 = 1
Conditions	molar heat capacity at constant pressure [J/K/mol]
293.15 K	168.36
298.15 K	169.55
303.15 K	171.18

O=C1CCCN1 [2-pyrrolidinone] + Cc1cccc(Cl)c1
x1 = 1
Conditions	molar heat capacity at constant pressure [J/K/mol]
293.15 K	168.36
298.15 K	169.55
303.15 K	171.18

O=C1CCCN1 [2-pyrrolidinone] + Cc1ccccc1Cl
x1 = 1
Conditions	molar heat capacity at constant pressure [J/K/mol]
293.15 K	168.36
298.15 K	169.55
303.15 K	171.18

Cc1cccc(Cl)c1 [3-chlorotoluene] + CN1CCCC1=O
molar heat capacity at constant pressure [J/K/mol]
Conditions	293.15 K	298.15 K	303.15 K
x2 = 0	175.21	176.46	177.67
x2 = 0.0566	176.9	178.51	180.44
x2 = 0.0976	178.07	179.91	182.2
x2 = 0.1345	179.19	181.07	183.53
x2 = 0.1724	180.12	182.1	184.76
x2 = 0.2187	181.31	183.26	186.04
x2 = 0.2565	182.12	184.06	186.9
x2 = 0.2934	182.85	184.82	187.61
x2 = 0.3342	183.56	185.46	188.27
x2 = 0.3745	184.2	185.98	188.79
x2 = 0.4187	184.71	186.4	189.2
x2 = 0.4568	184.96	186.73	189.36
x2 = 0.4986	185.09	186.84	189.47
x2 = 0.5386	185.06	186.75	189.31
x2 = 0.5783	184.78	186.58	189.08
x2 = 0.6112	184.42	186.25	188.68
x2 = 0.6542	183.69	185.54	187.92
x2 = 0.6923	182.87	184.66	187.08
x2 = 0.7328	181.83	183.55	185.83
x2 = 0.7786	179.95	181.8	183.95
x2 = 0.8189	178.11	180	182.01
x2 = 0.8324	177.43	179.29	181.17
x2 = 0.8621	175.85	177.56	179.36
x2 = 0.9078	172.92	174.43	175.98
x2 = 0.9427	170.28	171.62	172.92

Cc1cccc(Cl)c1 [3-chlorotoluene] + O=C1CCCN1
molar heat capacity at constant pressure [J/K/mol]
Conditions	293.15 K	298.15 K	303.15 K
x2 = 0	175.21	176.46	177.67
x2 = 0.0398	175.59	176.89	178.18
x2 = 0.0798	176.05	177.3	178.65
x2 = 0.1089	176.37	177.6	179.06
x2 = 0.1443	176.74	178.08	179.55
x2 = 0.1853	177.1	178.48	179.99
x2 = 0.2234	177.49	178.84	180.42
x2 = 0.2613	177.74	179.25	180.77
x2 = 0.3095	178.12	179.52	181.15
x2 = 0.3452	178.21	179.69	181.37
x2 = 0.3865	178.3	179.9	181.5
x2 = 0.4432	178.35	179.92	181.58
x2 = 0.4836	178.22	179.73	181.43
x2 = 0.5213	177.98	179.53	181.21
x2 = 0.5643	177.56	179.17	180.87
x2 = 0.6074	177.17	178.68	180.45
x2 = 0.6408	176.64	178.24	179.95
x2 = 0.6853	175.94	177.56	179.23
x2 = 0.7214	175.28	176.81	178.55
x2 = 0.7654	174.4	175.89	177.62
x2 = 0.8069	173.44	174.91	176.65
x2 = 0.8453	172.56	173.94	175.71
x2 = 0.8812	171.61	172.99	174.68
x2 = 0.9203	170.57	171.93	173.57
x2 = 0.9564	169.6	170.88	172.55
